Counter-ions that a name gives are not always drawn.
What was measured:
E. coli ATCC 25992 = assay: In vitro MIC, agar dilution; assay type: cell-based; conditions: Escherichia coli, ATCC25992, read-out: minimum inhibitory concentration (MIC)
Method in brief: (§1)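 Agar dilution, Mueller-Hinton; drug 128 → ≤0.25 μg/mL two-fold, duplicates. Inoculum ~10^4 cfu/spot (log phase). 35-36 °C, 16-20 h. MIC = lowest conc. with no growth.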

E. faecalis ATCC 29212 = assay: In vitro MIC, agar dilution; assay type: cell-based; conditions: Enterococcus faecalis, ATCC29212, read-out: minimum inhibitory concentration (MIC)
Method in brief: as §1

E. faecium A491(Amp^R) = assay: In vitro MIC, agar dilution; assay type: cell-based; conditions: Enterococcus faecium, read-out: minimum inhibitory concentration (MIC)
Method in brief: as §1

E. faecium ATCC 35667 = assay: In vitro MIC, agar dilution; assay type: cell-based; conditions: Enterococcus faecium, ATCC35667, read-out: minimum inhibitory concentration (MIC)
Method in brief: as §1

E. faecium VanA(Van^R) = assay: In vitro MIC, agar dilution; assay type: cell-based; conditions: Enterococcus faecium, read-out: minimum inhibitory concentration (MIC)
Method in brief: as §1

P. aeruginosa ATCC 27853 = assay: In vitro MIC, agar dilution; assay type: cell-based; conditions: Pseudomonas aeruginosa, ATCC27853, read-out: minimum inhibitory concentration (MIC)
Method in brief: as §1

[1] = system: S. aureus 76(Meth^R)(lac^+); assay: In vitro MIC, agar dilution; assay type: cell-based; conditions: Staphylococcus aureus, read-out: minimum inhibitory concentration (MIC)
Method in brief: as §1

[2] = system: S. aureus ATCC 13709(Meth^S); assay: In vitro MIC, agar dilution; assay type: cell-based; conditions: Staphylococcus aureus, ATCC13709, S. aureus ATCC 13709(Meth^S); read-out: minimum inhibitory concentration (MIC)
Method in brief: as §1

S. aureus ATCC 29213 = assay: In vitro MIC, agar dilution; assay type: cell-based; conditions: Staphylococcus aureus, ATCC29213, read-out: minimum inhibitory concentration (MIC)
Method in brief: as §1

[3] = system: S. aureus ATCC 33593(Meth^R); assay: In vitro MIC, agar dilution; assay type: cell-based; conditions: Staphylococcus aureus, ATCC33593, read-out: minimum inhibitory concentration (MIC)
Method in brief: as §1

[4] = system: S. aureus PC1(Meth^S)(lac^+); assay: In vitro MIC, agar dilution; assay type: cell-based; conditions: Staphylococcus aureus, read-out: minimum inhibitory concentration (MIC)
Method in brief: as §1

[5] = system: S. aureus Spain #356(Meth^R); assay: In vitro MIC, agar dilution; assay type: cell-based; conditions: Staphylococcus aureus, read-out: minimum inhibitory concentration (MIC)
Method in brief: as §1

[6] = system: S. haemolyticus 05(Meth^R); assay: In vitro MIC, agar dilution; assay type: cell-based; conditions: Staphylococcus haemolyticus, read-out: minimum inhibitory concentration (MIC)
Method in brief: as §1

[7] = system: S. aureus Col(Meth^R)(lac^-); assay: In vitro MIC, agar dilution; assay type: cell-based; conditions: Staphylococcus aureus, read-out: minimum inhibitory concentration (MIC)
Method in brief: (§2)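 Two-fold dilutions (128 to ≤0.25 μg/mL, in duplicate) were poured into Mueller-Hinton agar. Log-phase broth cultures were spot-inoculated at about 10^4 cfu per spot and incubated 35-36°C for 16-20 hours; the MIC was the lowest concentration inhibiting growth. Col is a high-level PBP2a producer; Col 8A is its isogenic PBP2a-lacking partner.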

[8] = system: S. aureus Col8A(Meth^S)(lac^-); assay: In vitro MIC, agar dilution; assay type: cell-based; conditions: Staphylococcus aureus; S. aureus Col8A(Meth^S)(lac^-); read-out: minimum inhibitory concentration (MIC)
Method in brief: as §2

E. faecalis VanB(Van^R) = assay: In vitro MIC, agar dilution; assay type: cell-based; conditions: Enterococcus faecalis, read-out: minimum inhibitory concentration (MIC)
Method in brief: as §1

[9] = system: S. aureus strain ATCC 13709 (methicillin-susceptible); assay: Murine model for lethal bacteremic peritonitis; assay type: in vivo, female Swiss-Webster mice; conditions: Staphylococcus aureus, ATCC13709, SC, 72 h; for responders at 1.25 mg/kg: read-out: Survivors (converted); for ED50: two equal doses, IP challenge, read-out: ED50
Method in brief: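 Female Swiss-Webster mice were challenged IP with an LD100 inoculum in 7% hog gastric mucin, then given test drug subcutaneously in twofold increments (0.01–512 mg/kg) as two equal doses at challenge and 2 h later, 10 mice per group. Survival was scored at 72 h; PD50 (total mg/kg) was derived by probit.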

SMILES | MIC (E. coli ATCC 25992) | MIC (E. faecalis ATCC 29212) | MIC (E. faecium A491(Amp^R)) | MIC (E. faecium ATCC 35667) | MIC (E. faecium VanA(Van^R)) | MIC (P. aeruginosa ATCC 27853) | MIC [1] | MIC [2] | MIC (S. aureus ATCC 29213) | MIC [3] | MIC [4] | MIC [5] | MIC [6] | MIC [7] | MIC (E. faecalis VanB(Van^R)) | responders at 0.156 mg/kg ([9]; read-out: Survivors) | responders at 0.3125 mg/kg ([9]; read-out: Survivors) | responders at 0.625 mg/kg ([9]; read-out: Survivors) | responders at 1.25 mg/kg [9] | ED50 [9] | also measured
NCCCCOCc1cnccc1SC1=C(C(=O)O)N2C(=O)[C@@H](NC(=O)/C(=N\O)c3nc(N)sc3Cl)[C@H]2SC1 [Cmpd 46, (7R)-7-[(Z)-2-(2-amino-5-chlorothiazol-4-yl)-2-(hydroxyimino)acetamido]-3-(3-(4-aminobutyloxymethyl)pyrid-4-ylthio)-3-cephem-4-carboxylate, trifluoroacetic acid salt] | 8 µg/mL | 0.13 µg/mL | 16 µg/mL | 2 µg/mL | 2 µg/mL | > 32 µg/mL | 4 µg/mL | 2 µg/mL | 1 µg/mL | 2 µg/mL | 2 µg/mL | 4 µg/mL | 8 µg/mL | 2 µg/mL | – | – | – | – | – | – | MIC [8]: 0.5 µg/mL
N=C(N)SCc1cnccc1SC1=C(C(=O)O)N2C(=O)[C@@H](NC(=O)/C(=N\O)c3csc(N)n3)[C@H]2SC1 [Cmpd 3, (7R)-7-[(Z)-2-(aminothiazol-4-yl)-2-(hydroxyimino)acetamido]-3-(3-isothioureidomethylpyrid-4-ylthio)-3-cephem-4-carboxylate, trifluoroacetic acid salt] | 2 µg/mL | 0.5 µg/mL | > 32 µg/mL | 2 µg/mL | 8 µg/mL | > 32 µg/mL | 8 µg/mL | 0.5 µg/mL | 0.5 µg/mL | 8 µg/mL | 0.5 µg/mL | 8 µg/mL | 8 µg/mL | 8 µg/mL | 1 µg/mL | 0% | 50% | 80% | 70% | 0.42 mg/kg | responders at 2.5 mg/kg ([9]; read-out: Survivors): 90%
NCCSCc1cnccc1SC1=C(C(=O)O)N2C(=O)[C@@H](NC(=O)/C(=N\O)c3csc(N)n3)[C@H]2SC1 [Cmpd 10, (7R)-7-[(Z)-2-(aminothiazol-4-yl)-2-(hydroxyimino)acetamido]-3-(3-aminoethylthiomethylpyrid-4-ylthio)-3-cephem-4-carboxylate, trifluoroacetic acid salt] | 4 µg/mL | 0.5 µg/mL | > 32 µg/mL | 2 µg/mL | 4 µg/mL | > 32 µg/mL | 2 µg/mL | 0.5 µg/mL | 0.5 µg/mL | 2 µg/mL | 0.5 µg/mL | 2 µg/mL | 4 µg/mL | 2 µg/mL | 1 µg/mL | 20% | 20% | 80% | 100% | 1.29 mg/kg | responders at 0.078 mg/kg ([9]; Dose 0.078 mg/kg, read-out: Survivors): 20%
CNCCNCCSCc1cnccc1SC1=C(C(=O)O)N2C(=O)[C@@H](NC(=O)/C(=N\O)c3nc(N)sc3Cl)[C@H]2SC1 [Cmpd 57, (7R)-7-[(Z)-2-(2-amino-5-chlorothiazol-4-yl)-2-(hydroxyimino)acetamido]-3-(3-(N-methylaminoethylaminoethylthiomethyl)pyrid-4-ylthio)-3-cephem-4-carboxylate, trifluoroacetic acid salt] | 4 µg/mL | 0.13 µg/mL | 16 µg/mL | 1 µg/mL | 2 µg/mL | > 32 µg/mL | 4 µg/mL | 0.5 µg/mL | 1 µg/mL | 4 µg/mL | 1 µg/mL | 4 µg/mL | 8 µg/mL | 4 µg/mL | 4 µg/mL | – | 40% | 40% | 40% | 1.08 mg/kg | responders at 2.5 mg/kg ([9]; read-out: Survivors): 50%; responders at 5 mg/kg ([9]; Dose 5 mg/kg, read-out: Survivors): 90%

Reference: patent US6087355A, “Cephalosporin antibiotics” (Microcide Pharmaceuticals, Inc., priority 1996, dated 2000)
